Results published in US20050175599A1, “Process for producing substance” (Kyowa Hakko Kogyo Co., Ltd., priority 2001, published 2005).

How the values were obtained:
[1] = system: transformant cell line 61-33γ (host YB2/0) producing a chimeric anti-GD3 antibody; test: Batch culture of antibody-producing cells in Q10-containing serum-free medium (Example 1); type: cell-based, rat; conditions: Q10-added culture, 500 μM Q10 (added as SANOMIT), batch culture 6 days
Description: The following batch culture was performed with transformant cell line 61-33γ (FERM BP-7325, WO 01/29246) which was obtained by using hybridoma cell line YB2/0 derived from a rat myeloma cell line as a host cell and produces a chimeric anti-GD3 antibody. […]
From the start to the completion of culturing, the liquid culture was sampled once a day, to assay the viable cell density (cells/mL) and the antibody concentration (μg/mL) respectively. Further, the viable cell density was measured by a dye-exclusion method using 0.4% trypan blue solution.
The cumulative number of viable cells is shown as the total sum of the viable cell density multiplied by the time as elapsed. In the present Example, the viable cell density was measured once a day, and the cumulative number of viable cells was shown as value of the additive sum of the individual viable cell densities measured each time (cells/mL×days).
Additionally, the specific antibody production rate and the relative specific antibody production rate were calculated respectively by the following equations. […]

[2] = system: transformant cell line 61-33γ (host YB2/0) producing a chimeric anti-GD3 antibody; test: Fed-batch culture of antibody-producing cells in Q10-containing medium (Example 2); type: cell-based, rat; conditions: Q10-added culture, 50 μmol/L Q10 dissolved in Tween 80, fed-batch culture 11 days
Description: The following fed-batch culture was performed with transformant cell line 61-33γ (FERM BP-7325) which was obtained by using hybridoma cell line YB2/0 derived from a rat myeloma cell line as a host cell and produces a chimeric anti-GD3 antibody.
In a T-225 cm^2 flask charged with 30 mL of a serum-free medium (Hybridoma-SFM; manufactured by Invitrogen Corporation), the cells were inoculated to a cell density of 3×10^5 cells/mL, followed by stationary culture in a 5%-CO2 incubator at 37° C. for 3 days.
On the completion of culturing, the resulting cells were inoculated in a 1-liter spinner flask (manufactured by Shibata Hario, Co., Ltd.) containing 0.7 liter of Hybridoma-SFM to 3×10^5 cells/ml. While adjusting the liquid culture to pH 7.1 ±0.1 and the dissolved oxygen concentration to 3±0.2 ppm, culturing was carried out at 37° C. for 11 days under the condition of stirring at 50 rpm. Aeration was carried out via a porous polytetrafluoroethylene tube arranged in the spinner flask, and a mixture gas of air, oxygen and carbon dioxide was supplied. Additionally, the pH was controlled by changing the ratio of air and carbon dioxide and by feeding 1 mol/L sodium carbonate solution. Furthermore, the dissolved oxygen concentration was controlled by changing the ratio of air and oxygen. […]

SMILES: COC1=C(OC)C(=O)C(C/C=C(\C)CC/C=C(\C)CC/C=C(\C)CC/C=C(\C)CC/C=C(\C)CC/C=C(\C)CC/C=C(\C)CC/C=C(\C)CC/C=C(\C)CCC=C(C)C)=C(C)C1=O [Q10]
- cumulative number of cells on the completion of culturing ([1]; Q10-free culture 1.71×10^7): 1.51×10^7 cells/mL×days
- relative specific antibody production rate ([1]; Q10-free culture = 100%): 166.3%
- cumulative number of cells on the completion of culturing ([2]; Q10-free culture 2.97×10^7): 3.98×10^7 cells/ml×days
- relative specific antibody production rate ([2]; Q10-free culture = 100%): 137.1%
